The NIST ThermoML archive (doi:10.1021/je301353z)

Assay: xn = mol fraction of the nth substance listed
Details: 101 kPa, Liquid; for speed of sound: Sing-around technique in a fixed-path interferometer; for mass density: Vibrating tube method

O=C1CCCN1 [2-pyrrolidinone] + c1ccncc1
Details | mass density, 293.15 K [kg/m3] | mass density, 298.15 K [kg/m3] | mass density, 303.15 K [kg/m3] | mass density, 308.15 K [kg/m3] | speed of sound, 293.15 K [m/s] | speed of sound, 298.15 K [m/s] | speed of sound, 303.15 K [m/s] | speed of sound, 308.15 K [m/s]
x1 = 0.1333 | 1001.83 | 997.07 | 992.29 | 987.38 | 1468.5 | 1445.6 | 1426.5 | 1406.5
x1 = 0.1801 | 1008.31 | 1003.57 | 998.88 | 994.01 | 1478.1 | 1455.5 | 1436.7 | 1416.9
x1 = 0.2312 | 1015.32 | 1010.62 | 1006.02 | 1001.17 | 1488.6 | 1466.4 | 1447.9 | 1428.3
x1 = 0.2713 | 1020.76 | 1016.1 | 1011.55 | 1006.71 | 1496.9 | 1475.1 | 1456.6 | 1437.4
x1 = 0.3312 | 1028.79 | 1024.17 | 1019.7 | 1014.93 | 1509.4 | 1488.1 | 1469.8 | 1450.9
x1 = 0.3717 | 1034.17 | 1029.56 | 1025.16 | 1020.41 | 1518 | 1496.8 | 1478.8 | 1460
x1 = 0.4312 | 1041.94 | 1037.41 | 1033.04 | 1028.34 | 1530.8 | 1510 | 1491.9 | 1473.6
x1 = 0.4752 | 1047.59 | 1043.13 | 1038.77 | 1034.15 | 1540.2 | 1519.7 | 1501.8 | 1483.5
x1 = 0.5316 | 1054.74 | 1050.35 | 1046.02 | 1041.5 | 1552.3 | 1532.1 | 1514.4 | 1496.3
x1 = 0.5717 | 1059.77 | 1055.45 | 1051.12 | 1046.65 | 1560.9 | 1541 | 1523.2 | 1505.6
x1 = 0.6219 | 1065.97 | 1061.74 | 1057.4 | 1053.03 | 1571.9 | 1552.1 | 1534.4 | 1517
x1 = 0.6772 | 1072.71 | 1068.57 | 1064.23 | 1059.98 | 1583.7 | 1564.5 | 1546.7 | 1529.5
x1 = 0.7314 | 1079.26 | 1075.19 | 1070.86 | 1066.7 | 1595.4 | 1576.4 | 1558.8 | 1541.7
x1 = 0.7714 | 1084.05 | 1080.04 | 1075.69 | 1071.59 | 1603.9 | 1585.1 | 1567.6 | 1550.7
x1 = 0.8312 | 1091.16 | 1087.2 | 1082.86 | 1078.85 | 1616.4 | 1598.2 | 1580.7 | 1564.3
x1 = 0.8712 | 1095.91 | 1091.96 | 1087.64 | 1083.64 | 1624.7 | 1606.7 | 1589.3 | 1573.2
x1 = 0.9013 | 1099.48 | 1095.53 | 1091.23 | 1087.24 | 1630.8 | 1613.2 | 1596 | 1580
x1 = 0.9311 | 1103.03 | 1099.05 | 1094.78 | 1090.78 | 1636.8 | 1619.6 | 1602.4 | 1586.6

c1ccncc1 [pyridine] + CN1CCCC1=O
Details | mass density, 293.15 K [kg/m3] | mass density, 298.15 K [kg/m3] | mass density, 303.15 K [kg/m3] | mass density, 308.15 K [kg/m3] | speed of sound, 293.15 K [m/s] | speed of sound, 298.15 K [m/s] | speed of sound, 303.15 K [m/s] | speed of sound, 308.15 K [m/s]
x2 = 0.1276 | 994.55 | 989.82 | 985.09 | 980.3 | 1467.8 | 1445 | 1425.5 | 1405.3
x2 = 0.1779 | 998.64 | 993.95 | 989.28 | 984.53 | 1478.4 | 1455.9 | 1436.8 | 1416.4
x2 = 0.2348 | 1003 | 998.35 | 993.72 | 988.98 | 1490.6 | 1468.4 | 1449.4 | 1429.1
x2 = 0.2664 | 1005.29 | 1000.65 | 996.04 | 991.33 | 1497.6 | 1475.5 | 1456.2 | 1436.2
x2 = 0.3291 | 1009.56 | 1004.94 | 1000.35 | 995.65 | 1511.1 | 1489 | 1469.8 | 1449.7
x2 = 0.3707 | 1012.2 | 1007.56 | 1002.99 | 998.31 | 1519.6 | 1498 | 1478.9 | 1458.8
x2 = 0.4328 | 1015.86 | 1011.21 | 1006.65 | 1001.96 | 1532.2 | 1510.7 | 1491.6 | 1471.5
x2 = 0.4749 | 1018.16 | 1013.51 | 1008.96 | 1004.25 | 1540.4 | 1518.6 | 1499.5 | 1479.4
x2 = 0.5215 | 1020.5 | 1015.82 | 1011.28 | 1006.63 | 1548.4 | 1527 | 1508.3 | 1487.9
x2 = 0.5647 | 1022.48 | 1017.8 | 1013.27 | 1008.63 | 1555.7 | 1534.4 | 1515.3 | 1495.4
x2 = 0.6364 | 1025.43 | 1020.74 | 1016.23 | 1011.56 | 1565.6 | 1544.5 | 1525.6 | 1505.9
x2 = 0.6778 | 1026.91 | 1022.19 | 1017.71 | 1013.05 | 1569.8 | 1549 | 1530.8 | 1510.5
x2 = 0.7312 | 1028.58 | 1023.87 | 1019.36 | 1014.76 | 1574.5 | 1553.6 | 1535.6 | 1515.4
x2 = 0.7701 | 1029.65 | 1024.9 | 1020.4 | 1015.79 | 1576.5 | 1556.2 | 1537.8 | 1518.1
x2 = 0.8321 | 1031.09 | 1026.29 | 1021.76 | 1017.16 | 1577.6 | 1557.6 | 1539.3 | 1519.7
x2 = 0.8711 | 1031.8 | 1026.99 | 1022.43 | 1017.79 | 1576.7 | 1556.8 | 1538.9 | 1519.1
x2 = 0.9011 | 1032.27 | 1027.41 | 1022.83 | 1018.17 | 1575.4 | 1555.7 | 1537.4 | 1517.6
x2 = 0.9312 | 1032.65 | 1027.76 | 1023.14 | 1018.45 | 1573.3 | 1553.5 | 1535.4 | 1515.6
